Data on two compounds can be found in patent publication US20260337156A1, “SOLUBILIZING COMPOUNDS” (Vivesto AB, priority 2022, published 2026).

Holding throughout (assay type): physicochemical
Series [1] is described as follows: drug loading capacity (ratio of amount API:(API+excipient)). The following applies: docetaxel 1.25 mg + compound 4.0 mg. As for the experimental part:
(§1) The solution was evaporated to dryness in a rotary evaporator. Final drying was performed in a desiccator to remove residual solvent. Hydration of the dried film was performed by adding water for injection (1.2 mL). […] Drug loading capacity is defined as the ratio of amount API:(API+excipient).
20 mg of example 1 was dispensed into a 25 mL round bottom flask and dissolved in methanol (3 mL). 800 μL of a stock solution of docetaxel in methanol (5 mg/mL) was added. The solution was evaporated to dryness in a rotary evaporator. Final drying was performed in a desiccator to remove residual solvent. Hydration of the dried film was performed by adding water for injection (1.0 mL) to a concentration of 4 mg/mL of docetaxel. The 4 mg/mL concentration was further diluted with 0.9% sodium chloride according to the table below.
(§2) 11 mg of example 1 was dispensed into a 25 mL round bottom flask and dissolved in methanol (2 mL). 740 μL of a stock solution of docetaxel in methanol (4.96 mg/mL) was added. The solution was evaporated to dryness in a rotary evaporator. Final drying was performed in a desiccator to remove residual solvent.
(§3) 4.5 mg of compound 1 was dispensed into a 25 mL round bottom flask and dissolved in methanol (2 mL). 1500 μL of a stock solution of cabazitaxel in methanol (1.00 mg/mL) was added. The solution was evaporated to dryness in a rotary evaporator. Final drying was performed in a desiccator to remove residual solvent.
4.5 mg of compound 1 was dispensed into a 25 mL round bottom flask and dissolved in methanol (2 mL). 1500 μL of a stock solution of cyclosporin in methanol (1.00 mg/mL) was added. The solution was evaporated to dryness in a rotary evaporator. Final drying was performed in a desiccator to remove residual solvent.
4.0 mg of compound 2 was dispensed into a 25 mL round bottom flask and dissolved in methanol (3 mL). 250 μL of a stock solution of docetaxel in methanol (5 mg/mL) was added. The solution was evaporated to dryness in a rotary evaporator. Final drying was performed in a desiccator to remove residual solvent. Hydration of the dried film was performed by adding water for injection (1.25 mL). […]
4.5 mg of compound 3 was dispensed into a 25 mL round bottom flask and dissolved in methanol (3 mL). 305 μL of a stock solution of docetaxel in methanol (4.96 mg/mL) was added. The solution was evaporated to dryness in a rotary evaporator. Final drying was performed in a desiccator to remove residual solvent.
4.5 mg of compound 3 was dispensed into a 25 mL round bottom flask and dissolved in methanol (3 mL). […] of a stock solution of docetaxel in methanol (4.96 mg/mL) was added. The solution was evaporated to dryness in a rotary evaporator. Final drying was performed in a desiccator to remove residual solvent.

The nature of series [2]: appearance of the hydrated drug formulation. Particulars: formulation with docetaxel. The method, then: 3.8 mg of compound 1 was dispensed into a 25 mL round bottom flask and dissolved in methanol (2 mL). 240 μL of a stock solution of docetaxel in methanol (5 mg/mL) was added.
as §1, §2, §3
4.5 mg of compound 1 was dispensed into a 25 mL round bottom flask and dissolved in methanol (2 mL). 1500 μL of a stock solution of cyclosporin in methanol (1.00 mg/mL) was added. The solution was evaporated to dryness in a rotary evaporator. Final drying was performed in a desiccator to remove residual solvent. […]
4.5 mg of compound 4 was dispensed into a round bottom flask and dissolved in methanol (3 mL). […] of a stock solution of docetaxel in methanol (4.96 mg/mL) was added. The solution was evaporated to dryness in a rotary evaporator. Final drying was performed in a desiccator (40 min) to remove residual solvent. Rehydration of the dried film was performed by adding 0.9% sodium chloride solution (1.5 mL).

Series [3] is described as follows: micellar particle size and polydispersity index (ZetaSizer, dynamic light scattering) of drug formulations at different dilutions. The following applies: micelles with docetaxel. The method, then: The particle size of the micelles in the composition is typically in the range of about 5 to about 150 nm. The particle size may be determined e.g. using Dynamic Light Scattering (DLS) in 0.9% NaCl at 1 mg/mL drug concentration, preferably using a red laser with a wavelength of 633 nm.
Micellar size was measured using a ZetaSizer from Malvern Panalytical. […]
20 mg of example 1 was dispensed into a 25 mL round bottom flask and dissolved in methanol (3 mL). 800 μL of a stock solution of docetaxel in methanol (5 mg/mL) was added. The solution was evaporated to dryness in a rotary evaporator. Final drying was performed in a desiccator to remove residual solvent. Hydration of the dried film was performed by adding water for injection (1.0 mL) to a concentration of 4 mg/mL of docetaxel. The 4 mg/mL concentration was further diluted with 0.9% sodium chloride according to the table below. […]
A serial dilution was performed for the system docetaxel:compound 1. A stock solution of docetaxel in methanol was mixed with a stock solution of the micelle forming agent (compound 1) in a round bottom flask at a weight ratio of 1:5. The mixture was evaporated to dryness in a rotary evaporator. Final drying was performed in a desiccator to remove residual solvent. Hydration of the dried film was performed by adding water for injection (1.0 mL) to a concentration of 1 mg/mL of docetaxel. The resulting solution was filtered through a 0.22 μm sterile filter and further diluted with 0.9% sodium chloride solution.
4.5 mg of compound 1 was dispensed into a 25 mL round bottom flask and dissolved in methanol (2 mL). 1500 μL of a stock solution of cabazitaxel in methanol (1.00 mg/mL) was added. The solution was evaporated to dryness in a rotary evaporator. Final drying was performed in a desiccator to remove residual solvent. […]

Series [4] can be described thus: particle size and polydispersity index of drug micelles over time (ZetaSizer). Particulars: docetaxel:compound 1:5, docetaxel 0.5 mg/mL. The method, then:
Micellar size was measured using a ZetaSizer from Malvern Panalytical.
A stock solution of docetaxel in methanol was mixed with a stock solution of compound 1 in a round bottom flask. The mixture was evaporated to dryness in a rotary evaporator. Final drying was performed in a desiccator to remove residual solvent. Hydration of the dried film was performed by adding water for injection (1.0 mL) to a concentration of 1 mg/mL of docetaxel. The resulting solution was filtered through a 0.22 μm sterile filter and further diluted with 0.9% sodium chloride solution to 0.5 mg/mL of docetaxel. […]
A stock solution of cyclosporin in methanol was mixed with a stock solution of compound 1 in a round bottom flask. The mixture was evaporated to dryness in a rotary evaporator. Final drying was performed in a desiccator to remove residual solvent. Hydration of the dried film was performed by adding water for injection (1.0 mL) to a concentration of 1 mg/mL of cyclosporin. The resulting solution was filtered through a 0.22 μm sterile filter and further diluted with 0.9% sodium chloride solution to 0.5 mg/mL of cyclosporin. The final weight ratio of cyclosporin to micelle forming agent was 1:3.
A stock solution of docetaxel in methanol was mixed with a stock solution of compound 3 in a round bottom flask. The mixture was evaporated to dryness in a rotary evaporator. Final drying was performed in a desiccator to remove residual solvent. Hydration of the dried film was performed by adding water for injection (1.0 mL) to a concentration of 1 mg/mL of docetaxel. The resulting solution was filtered through a 0.22 μm sterile filter and further diluted with 0.9% sodium chloride solution to 0.5 mg/mL of Docetaxel. The final weight ratio of docetaxel to micelle forming agent was 1:3.
A stock solution of cyclosporin in methanol was mixed with a stock solution of compound 3 in a round bottom flask. The mixture was evaporated to dryness in a rotary evaporator. Final drying was performed in a desiccator to remove residual solvent. Hydration of the dried film was performed by adding water for injection (1.0 mL) to a concentration of 1 mg/mL of cyclosporin. The resulting solution was filtered through a 0.22 μm sterile filter and further diluted with 0.9% sodium chloride solution to 0.5 mg/mL of cyclosporin. The final weight ratio of cyclosporin to micelle forming agent was 1:3.
A stock solution of docetaxel in methanol was mixed with a stock solution of compound 4 in a round bottom flask. The mixture was evaporated to dryness in a rotary evaporator. Final drying was performed in a desiccator to remove residual solvent. Hydration of the dried film was performed by adding water for injection (1.0 mL) to a concentration of 1 mg/mL of docetaxel. The resulting solution was filtered through a 0.22 μm sterile filter and further diluted with 0.9% sodium chloride solution to 0.5 mg/mL of docetaxel. […]
A stock solution of docetaxel in methanol was mixed with a stock solution of compound 5 in a round bottom flask. The mixture was evaporated to dryness in a rotary evaporator. Final drying was performed in a desiccator to remove residual solvent. Hydration of the dried film was performed by adding water for injection (1.0 mL) to a concentration of 1 mg/mL of docetaxel. The resulting solution was filtered through a 0.22 μm sterile filter and further diluted with 0.9% sodium chloride solution to 0.5 mg/mL of docetaxel. The final weight ratio of docetaxel to micelle forming agent was 1:3.
A stock solution of cabazitaxel in methanol was mixed with a stock solution of compound 5 in a round bottom flask. The mixture was evaporated to dryness in a rotary evaporator. Final drying was performed in a desiccator to remove residual solvent. Hydration of the dried film was performed by adding water for injection (1.0 mL) to a concentration of 1 mg/mL of cabazitaxel. […]

The mark [5] stands for this setting: 1.25 mg docetaxel + 4.0 mg compound, water 1.25 mL, mixed 1:1 v/v with 0.9% NaCl.
The mark [6] stands for this setting: ratio 3:1, 0.9% NaCl, docetaxel conc. 0.25 mg/mL.
Where [7] appears, read: ratio 3:1, 0.9% NaCl, docetaxel conc. 0.5 mg/mL.
The mark [8] stands for this setting: ratio 3:1, 0.9% NaCl, docetaxel conc. 1 mg/mL.

Regarding `COc1cc(C)c(/C=C/C(C)=C/C=C/C(C)=C/C(=O)N(CCCS(=O)(=O)[O-])C2CCCCC2)c(C)c1C.[Na+]` [Compound 2], the Drug loading capacity in series [1] is reported as 24%. In addition, in series [2], the appearance of formulation entry is on record as “yellow transparent solution”. In series [3] (setting [5]), the Particle size came out at 17.9 nm and the Polydispersity index was found to be 0.72.
As to `COc1cc(C)c(/C=C/C(C)=C/C=C/C(C)=C/C(=O)N(CC(O)CS(=O)(=O)[O-])C2CCCCC2)c(C)c1C.[Na+]` (stereo not drawn) [Compound 4], the “change of particle size and polydispersity index over time” value in series [4] (0-24 h) was “Increase in the particle size and variations of the polydispersity index over time were noted”. In addition, the Particle size is on record as 34.56 nm in series [4] (time 0 h); 54.37 nm in series [4] (time 1 h); 56.46 nm in series [4] (time 2 h); 58.90 nm in series [4] (time 4 h); 59.79 nm in series [4] (time 6 h); 78.72 nm in series [4] (time 24 h). The results for the Particle size in series [3] (setting [6]), in series [3] (setting [7]) and in series [3] (setting [8]) were 8.7 nm, 8.9 nm and 8.9 nm, respectively. For the same compound, the Polydispersity index in series [4] (time 0 h) is 0.26; in series [4] (time 1 h), 0.14; in series [4] (time 2 h) it was 0.12; in series [4] (time 4 h) it was 0.11; in series [4] (time 6 h), 0.12; in series [4] (time 24 h), 0.08. Further, the results for the Polydispersity index in series [3] (setting [6]), in series [3] (setting [7]) and in series [3] (setting [8]) were 0.31, 0.25 and 0.32, respectively. For the same compound, the appearance of formulation entry in series [2] was “yellow transparent solution”.
